Legend:
Type in all cases: in vivo
[1] = test system: barnyardgrass (Echinochloa crus-galli); experiment: Test A pre-/postemergence plant response
Procedure, shortened: (§1)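 Approximately ten days after concurrent pre- and postemergence spraying in a greenhouse, plants were compared with untreated controls and rated visually for injury, 0 = no effect to 100 = complete control. Preemergence spray was directed onto loam/sand soil; postemergence targeted 1–2 leaf seedlings.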

corn (Zea mays) = experiment: Test A pre-/postemergence plant response
Procedure, shortened: as §1

[2] = test system: giant foxtail (Setaria faberii); experiment: Test A pre-/postemergence plant response
Procedure, shortened: as §1

[3] = test system: large crabgrass (Digitaria sanguinalis); experiment: Test A pre-/postemergence plant response
Procedure, shortened: as §1

[4] = test system: velvetleaf (Abutilon theophrasti); experiment: Test A pre-/postemergence plant response
Procedure, shortened: as §1

[5] = test system: wheat (Triticum aestivum); experiment: Test A pre-/postemergence plant response
Procedure, shortened: as §1

[6] = test system: galium (catchweed bedstraw, Galium aparine); experiment: Test B pre-/postemergence plant response; settings: Preemergence; for Galium plant response rating: 125 g ai/ha
Procedure, shortened: (§2)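 Greenhouse herbicide screen. Pre- and postemergence (1- to 4-leaf) spray of compound in solvent/surfactant mixture; loam–sand soil for pre, peat/vermiculite medium for post. Visual control rating 0–100 at 13 to 15 days after treatment.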

[7] = test system: nightshade (eastern black nightshade, Solanum ptycanthum); experiment: Test B pre-/postemergence plant response; settings: Preemergence; for Nightshade plant response rating: 125 g ai/ha
Procedure, shortened: as §2

[8] = test system: sunflower (common oilseed sunflower, Helianthus annuus); experiment: Test B pre-/postemergence plant response; settings: Preemergence; for Sunflower plant response rating: 125 g ai/ha
Procedure, shortened: as §2

[9] = test system: canarygrass (Phalaris minor); experiment: Test B postemergence plant response; settings: Postemergence; for Canarygrass plant response rating: 250 g ai/ha, scale 0 to 100
Procedure, shortened: (§3)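 Plants at the 1- to 4-leaf stage (2 to 18 cm tall), grown in pots of peat moss/vermiculite medium with wetting agent and starter nutrients, received postemergence applications of test chemicals. After 13 to 15 days in a greenhouse, injury was rated visually against untreated controls on a 0 (no effect) to 100 (complete control) scale.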

[10] = test system: chickweed (Stellaria media); experiment: Test B postemergence plant response; settings: Postemergence; for Chickweed plant response rating: 250 g ai/ha, scale 0 to 100
Procedure, shortened: as §3

[11] = test system: windgrass (Apera spica-venti); experiment: Test B postemergence plant response; settings: Postemergence; for Windgrass plant response rating: 250 g ai/ha, scale 0 to 100
Procedure, shortened: as §3

[12] = test system: winter barley (Hordeum vulgare); experiment: Test B postemergence plant response; settings: Postemergence; for Barley plant response rating: 250 g ai/ha, scale 0 to 100
Procedure, shortened: as §3

[13] = test system: goosegrass (Eleusine indica); experiment: Test B pre-/postemergence plant response; settings: Preemergence, 62 g ai/ha; scale 0 to 100, 0 no effect, 100 complete control
[14] = Postemergence, 125 g ai/ha, visual injury, 0 to 100 scale (0 no effect, 100 complete control), approx. ten days
[15] = Postemergence, 500 g ai/ha, 0 to 100 scale, 0 = no effect, 100 = complete control, approx. ten days
[16] = Preemergence, 125 g ai/ha, 0 to 100 scale, 0 = no effect, 100 = complete control
[17] = Preemergence, 500 g ai/ha, visual injury, 0 to 100 scale (0 no effect, 100 complete control), approx. ten days
[18] = 31 g ai/ha, scale 0 to 100 (0 no effect, 100 complete control)
[19] = 62 g ai/ha, scale 0 to 100, 0 no effect, 100 complete control
[20] = 62 g ai/ha, scale 0 (no effect) to 100 (complete control), 13 to 15 days
[21] = 125 g ai/ha, visual rating after 13 to 15 days, scale 0 (no effect) to 100 (complete control)
[22] = 125 g ai/ha, scale 0 to 100 (0 no effect, 100 complete control), 13 to 15 days

2-(3,5-difluorophenyl)-5-[(2-hydroxy-4-oxobicyclo[3.2.1]oct-2-en-3-yl)carbonyl]-3-(2-methoxyethyl)-4(3H)-pyrimidinone [Compound 243]
Barnyardgrass plant response rating [1, 14]: 80 | Plant response rating, Barnyardgrass [1, 15]: 100 | Plant response rating, Barnyardgrass [1, 16]: 0 | Plant response rating, Barnyardgrass [1, 17]: 100 | Corn plant response rating (corn (Zea mays); [14]): 10 | Plant response rating, Corn (corn (Zea mays); [15]): 70 | Plant response rating, Corn (corn (Zea mays); [16]): 0 | Plant response rating, Corn (corn (Zea mays); [17]): 0 | Foxtail, Giant plant response rating [2, 14]: 80 | Plant response rating, Foxtail, Giant [2, 15]: 90 | Plant response rating, Foxtail, Giant [2, 16]: 40 | Plant response rating, Foxtail, Giant [2, 17]: 90 | Crabgrass, Large plant response rating [3, 14]: 70 | Plant response rating, Crabgrass, Large [3, 15]: 90 | Plant response rating, Crabgrass, Large [3, 16]: 90 | Plant response rating, Crabgrass, Large [3, 17]: 100 | Velvetleaf plant response rating [4, 14]: 100 | Plant response rating, Velvetleaf [4, 15]: 100 | Plant response rating, Velvetleaf [4, 16]: 70 | Plant response rating, Velvetleaf [4, 17]: 100 | Wheat plant response rating [5, 14]: 0 | Plant response rating, Wheat [5, 15]: 40 | Plant response rating, Wheat [5, 16]: 0 | Plant response rating, Wheat [5, 17]: 0 | Plant response rating, Galium ([6]; 250 g ai/ha, 0 to 100 scale): 95 | Plant response rating, Galium [6, 18]: 0 | Plant response rating, Galium [6, 19]: 40 | Galium plant response rating ([6]; 0 to 100 scale): 60 | Plant response rating, Nightshade ([7]; 250 g ai/ha, 0 to 100 scale): 100 | Plant response rating, Nightshade [7, 18]: 100 | Plant response rating, Nightshade [7, 19]: 100 | Nightshade plant response rating ([7]; 0 to 100 scale): 100 | Plant response rating, Sunflower ([8]; 250 g ai/ha, 0 to 100 scale): 98 | Plant response rating, Sunflower [8, 18]: 45 | Plant response rating, Sunflower [8, 19]: 85 | Sunflower plant response rating ([8]; 0 to 100 scale): 95 | Plant response rating, Canarygrass [9, 18]: 5 | Plant response rating, Canarygrass [9, 20]: 25 | Plant response rating, Canarygrass [9, 21]: 50 | Canarygrass plant response rating [9]: 60 | Plant response rating, Chickweed [10, 18]: 20 | Plant response rating, Chickweed [10, 20]: 85 | Plant response rating, Chickweed [10, 21]: 95 | Chickweed plant response rating [10]: 98 | Plant response rating, Windgrass [11, 18]: 50 | Plant response rating, Windgrass [11, 20]: 55 | Plant response rating, Windgrass [11, 21]: 60 | Windgrass plant response rating [11]: 80 | Plant response rating, Barley [12, 18]: 0 | Plant response rating, Barley [12, 20]: 0 | Plant response rating, Barley [12, 22]: 20 | Barley plant response rating [12]: 35 | Plant response rating, Goosegrass [13]: 98

5-[(1-ethyl-5-hydroxy-1H-pyrazol-4-yl)carbonyl]-2-phenyl-3-(phenylmethyl)-4(3H)-pyrimidinone [Compound 20]
Barnyardgrass plant response rating [1, 14]: 50 | Plant response rating, Barnyardgrass [1, 15]: 90 | Plant response rating, Barnyardgrass [1, 16]: 30 | Plant response rating, Barnyardgrass [1, 17]: 60 | Corn plant response rating (corn (Zea mays); [14]): 0 | Plant response rating, Corn (corn (Zea mays); [15]): 10 | Plant response rating, Corn (corn (Zea mays); [16]): 0 | Plant response rating, Corn (corn (Zea mays); [17]): 0 | Foxtail, Giant plant response rating [2, 14]: 30 | Plant response rating, Foxtail, Giant [2, 15]: 60 | Plant response rating, Foxtail, Giant [2, 16]: 0 | Plant response rating, Foxtail, Giant [2, 17]: 10 | Crabgrass, Large plant response rating [3, 14]: 90 | Plant response rating, Crabgrass, Large [3, 15]: 90 | Plant response rating, Crabgrass, Large [3, 16]: 50 | Plant response rating, Crabgrass, Large [3, 17]: 80 | Velvetleaf plant response rating [4, 14]: 100 | Plant response rating, Velvetleaf [4, 15]: 100 | Plant response rating, Velvetleaf [4, 16]: 80 | Plant response rating, Velvetleaf [4, 17]: 90 | Wheat plant response rating [5, 14]: 0 | Plant response rating, Wheat [5, 15]: 10 | Plant response rating, Wheat [5, 16]: 0 | Plant response rating, Wheat [5, 17]: 0 | Plant response rating, Galium ([6]; 250 g ai/ha, 0 to 100 scale): 50 | Plant response rating, Galium [6, 18]: 0 | Plant response rating, Galium [6, 19]: 5 | Galium plant response rating ([6]; 0 to 100 scale): 30 | Plant response rating, Nightshade ([7]; 250 g ai/ha, 0 to 100 scale): 100 | Plant response rating, Nightshade [7, 18]: 50 | Nightshade plant response rating ([7]; 0 to 100 scale): 98 | Plant response rating, Sunflower ([8]; 250 g ai/ha, 0 to 100 scale): 85 | Plant response rating, Sunflower [8, 18]: 50 | Plant response rating, Sunflower [8, 19]: 70 | Sunflower plant response rating ([8]; 0 to 100 scale): 70 | Plant response rating, Canarygrass [9, 18]: 0 | Plant response rating, Canarygrass [9, 20]: 0 | Plant response rating, Canarygrass [9, 21]: 0 | Canarygrass plant response rating [9]: 5 | Plant response rating, Chickweed [10, 18]: 90 | Plant response rating, Chickweed [10, 20]: 98 | Plant response rating, Chickweed [10, 21]: 98 | Chickweed plant response rating [10]: 100 | Plant response rating, Windgrass [11, 18]: 0 | Plant response rating, Windgrass [11, 20]: 0 | Plant response rating, Windgrass [11, 21]: 0 | Windgrass plant response rating [11]: 5 | Plant response rating, Barley [12, 18]: 0 | Plant response rating, Barley [12, 20]: 0 | Plant response rating, Barley [12, 22]: 0 | Barley plant response rating [12]: 0 | Plant response rating, Goosegrass [13]: 70

5-[(2-hydroxy-6-oxo-1-cyclohexen-1-yl)carbonyl]-3-(2-methoxyethyl)-2-(3-thienyl)-4(3H)-pyrimidinone [Compound 97]
Barnyardgrass plant response rating [1, 14]: 90 | Plant response rating, Barnyardgrass [1, 15]: 90 | Plant response rating, Barnyardgrass [1, 16]: 30 | Plant response rating, Barnyardgrass [1, 17]: 90 | Corn plant response rating (corn (Zea mays); [14]): 30 | Plant response rating, Corn (corn (Zea mays); [15]): 90 | Plant response rating, Corn (corn (Zea mays); [16]): 0 | Plant response rating, Corn (corn (Zea mays); [17]): 0 | Foxtail, Giant plant response rating [2, 14]: 90 | Plant response rating, Foxtail, Giant [2, 15]: 100 | Plant response rating, Foxtail, Giant [2, 16]: 70 | Plant response rating, Foxtail, Giant [2, 17]: 100 | Crabgrass, Large plant response rating [3, 14]: 90 | Plant response rating, Crabgrass, Large [3, 15]: 100 | Plant response rating, Crabgrass, Large [3, 16]: 90 | Plant response rating, Crabgrass, Large [3, 17]: 100 | Velvetleaf plant response rating [4, 14]: 100 | Plant response rating, Velvetleaf [4, 15]: 100 | Plant response rating, Velvetleaf [4, 16]: 90 | Plant response rating, Velvetleaf [4, 17]: 100 | Wheat plant response rating [5, 14]: 40 | Plant response rating, Wheat [5, 15]: 60 | Plant response rating, Wheat [5, 16]: 0 | Plant response rating, Wheat [5, 17]: 50 | Plant response rating, Galium ([6]; 250 g ai/ha, 0 to 100 scale): 85 | Plant response rating, Galium [6, 18]: 0 | Plant response rating, Galium [6, 19]: 10 | Galium plant response rating ([6]; 0 to 100 scale): 85 | Plant response rating, Nightshade ([7]; 250 g ai/ha, 0 to 100 scale): 100 | Plant response rating, Nightshade [7, 18]: 100 | Plant response rating, Nightshade [7, 19]: 100 | Nightshade plant response rating ([7]; 0 to 100 scale): 100 | Plant response rating, Sunflower ([8]; 250 g ai/ha, 0 to 100 scale): 98 | Plant response rating, Sunflower [8, 18]: 0 | Plant response rating, Sunflower [8, 19]: 80 | Sunflower plant response rating ([8]; 0 to 100 scale): 95 | Plant response rating, Canarygrass [9, 18]: 0 | Plant response rating, Canarygrass [9, 20]: 0 | Plant response rating, Canarygrass [9, 21]: 5 | Canarygrass plant response rating [9]: 40 | Plant response rating, Chickweed [10, 18]: 90 | Plant response rating, Chickweed [10, 20]: 95 | Plant response rating, Chickweed [10, 21]: 95 | Chickweed plant response rating [10]: 98 | Plant response rating, Windgrass [11, 18]: 5 | Plant response rating, Windgrass [11, 20]: 10 | Plant response rating, Windgrass [11, 21]: 30 | Windgrass plant response rating [11]: 40 | Plant response rating, Barley [12, 18]: 0 | Plant response rating, Barley [12, 20]: 0 | Plant response rating, Barley [12, 22]: 0 | Barley plant response rating [12]: 5 | Plant response rating, Goosegrass [13]: 75

From US8952024B2, “Herbicidal pyrimidone derivatives” (E I du Pont de Nemours and Company, priority 2009, dated 2015)
